Assay results published in patent US20040138301A1, “Chemical uncouplers for the treatment of obesity” (priority 2002, published 2004).

How the values were obtained:
[1] = test system: FSK-4 cells; assay: Assay (IV): Glucose utilisation in FSK-4 cells; assay type: cell-based; details: FSK-4 cells; for EC50: glucose utilisation, 24 hours incubation, read-out: FSK4 EC50; for Emax: maximal efficacy relative to FCCP, read-out: FSK4 Emax (% of FCCP)
Experimental: Assay (IV): Glucose Utilisation in FSK-4 Cells
The assay measures indirectly the activity of the respiratory chain in FSK-4 cells by using D-(6-^3H(N))-glucose. The ^3H-proton will first be released in the TCA cyclus and transported to the respiratory chain where it will be incorporated into water. The water is thereafter separated from the D-(6-^3H(N))-glucose by evaporation. Finally, the radioactivity in the water is determined using a Topcounter.
FSK-4 cells obtained from ATCC (Maryland, USA), are cultured in growth medium (McCoy's medium with the following addition 100 units/ml penicillin and streptomycin and 10% FCS (fetal calf serum)) at 37° C. and 5% CO2. All media are obtained by Gibco (Life Technologies, Maryland, USA) where not otherwise mentioned.
At day zero the cells are harvested using trypsin-EDTA and washed in assay medium (MEM medium with the following addition 1× non-essential amino acids (M7145, 2 mM glutamin, 100 units/ml pencillin and streptomycin, 0.0075% sodium bicarbonate, 1 mM sodium pyrovate and 2% horse serum) using centrifugation. The cells are plated into single StripPlates wells (Corning B.V.Life Sciences, The Netherlands) that are placed into 24-well plates (Corning B.V.Life Sciences, The Netherlands) with a concentration of 1,5×10^4 cells/100 μl assay medium/well. The cells are then incubated at 37° C. and 5% CO2 overnight.
(§1) The next day the compounds to be tested are diluted to different concentrations in DMSO (Sigma, Missouri, USA) to 100 times final concentration. They are then diluted to a final concentration in assay medium containing 10 μCi/ml D-(6-^3H(N))-glucose (PerkinElmer Life Sciences Inc., Boston, USA). The medium is removed from the cells and 200 μl of the compound dilutions are added in duplicates. The cells are then incubated for another 24 hours at 37° C. and 5% CO2. Finally the cells are lysed by adding 50 μl 10% TCA (tri-chloroacetatic acid). 300 μl of sterile water is then added to the 24-wells that surrounds the StripPlate wells. The plate is sealed with Top-seal-tape (Packard, PerkinElmer Life Sciences Inc., Boston, USA) and the plate is incubated in a heating cupboard at 50° C. to equilibrium the radioactive water formed in the respiratory chain into the water in the 24-well plate by evaporate. The plates incubate for 8 hours where the heating cupboard is turned off. The top seal is removed when the samples have reached room temperature. One ml scintillation liquid (Packard Microscient, PerkinElmer Life Sciences Inc., Boston, USA) is added to all the samples and the radioactivity is determined using a Topcounter (Packard, PerkinElmer Life Sciences Inc., Boston, USA). Non-specific activity is determined by evaporating 200 μl of the dilution medium containing the D-(6-^3H(N))-glucose into 300 μl sterile water, and total radioactivity is determined by counting 5 μl assay medium with 10 μCi/ml D-(6-^3H(N))-glucose.
All calculations are done using GraphPad Prism 3.0 (GraphPad software, Inc.) From concentration-response curves the half maximal concentration (EC50) and maximal efficacy (Emax) are calculated using equation 1.
Y=Bottom+(Top−Bottom)/(1+10^((LogEc50-X)*slope))
(§2) X is the logarithm of the molar concentration of the test compound.
Y is the degree of stimulation caused by the compound measured as percentage of the basal stimulation.
The calculated EC50 value is then used to determine the concentrations used in a study where the Hill slope is calculated.
From the double logarithmic plot of the increase in glucose utilisation and the compound concentration the Hill slope is calculated accordingly to equation 2.
It is presumed, that the maximal increase in the glucose utilisation (as measured in the FSK-4 glucose utilisation assay) is limited by the capacity of the metabolism.

[2] = test system: HEP-G2 cells; assay: cells; details: for EC50 / Emax / EC (Emax): Homo sapiens; for EC50: HepG2, 3 h, read-out: HEP-G2 EC50, HEP-G2 cells, glucose utilisation, 3 hours incubation; for Emax: HepG2, read-out: HEP-G2 Emax (% of FCCP), HEP-G2 cells, maximal stimulation relative to FCCP; for EC (Emax): HepG2, read-out: HEP-G2 Emax (μM), HEP-G2 cells, concentration at which Emax is achieved (CEmax); for HEP-G2 Tox: human, 3 h
Experimental: Assay (I): Glucose utilisation in a human hepatocytes cell line (HEP-G2 cells)
The assay measures indirectly the activity of the respiratory chain in HEP-G2 cells by using D-(3-^3H(N))-glucose. The ^3H-proton will first be released during the metabolism of glucose where it will be incorporated into water. The water is thereafter separated from the D-(3-^3H(N))-glucose by evaporation. Finally, the radioactivity in the water is determined using a Topcounter.
HEP-G2 cells obtained from ATCC (Maryland, USA), are cultured in assay medium (MEM medium) with the following addition 1× non-essential amino acids (M7145, 2 mM glutamine, 100 units/ml penicillin and streptomycin, 0.0075% sodium bicarbonate, 1 mM sodium pyrovate and 0.5% BSA (Bovin Serum Albumin, Sigma Missouri, USA)) at 37° C. and 5% CO2. All media are obtained by Gibco (Life Technologies, Maryland, USA) where not otherwise mentioned.
At day zero the cells are harvested using trypsin-EDTA and washed in assay medium using centrifugation. […] The cells are then incubated at 37° C. and 5% CO2 overnight.
as §1, with “diluted” for “diluted to different concentrations”, “μCi/ml D-(3-^3H(N))-glucose” for “μCi/ml D-(6-^3H(N))-glucose”, “another 3” for “another 24”, “TCA (trichloroacetic” for “TCA (tri-chloroacetatic”, “the D-(3-^3H(N))-glucose” for “the D-(6-^3H(N))-glucose”, “μCi/ml D-(3-^3H(N))-glucose.” for “μCi/ml D-(6-^3H(N))-glucose.”
The cpm (counts per minute) representing the non-specific radioactivity in the D-(3-^3H(N))-glucose is subtracted from all incubated values. Then mean basal value (samples without any compound added) is subtracted from the values of all stimulated samples (samples added different concentrations of the different test compounds). All these calculations are done using GraphPad Prism 3.0 (GraphPad software, Inc.). The maximal stimulation caused by the test compounds is calculated in percentage of maximal stimulation caused by either DNP or FCCP.
When calculating the concentration-response curve the maximal glucose utilisation stimulated by FCCP or DNP (subtracted non-specific and basal values) is converted to 100% and all the other values are expressed in percentage of this value. Using these percentage values and the compound concentration a concentration-response curve is calculated using sigmoidal dose-response (variable slope) equation (all the calculations are done by GraphPad Prism 3.0 (GraphPad software, Inc.));
Y=Bottom+(Top−Bottom)/(1+10^((LogEC50-X)*slope))
as §2
Y is the degree of stimulation caused by the compound measured as a percentage of the maximal stimulation achieved by use of FCCP or DNP.
The results achieved with these concentrations are used to determine the slope in this area using the following equation: […]

Compound | EC50 [1] | Emax [1] | EC50 [2] | Emax [2] | EC (Emax) [2] | HEP-G2 Tox [2]
Cc1c(Cl)cc(C(C)(C)C)c(O)c1C(=O)Nc1cc(C(F)(F)F)cc(C(F)(F)F)c1 [Example 47, N-(3,5-Bis-Trifluoromethyl-Phenyl)-3-Tert-Butyl-5-Chloro-2-Hydroxy-6-Methyl-Benzamide] | 1000 nM | 90% | 700 nM | 75% | 10 µM | Tox 0.1 mM
Cc1c(Cl)cc(C(C)(C)C)c(O)c1C(=O)Nc1cc(C(F)(F)F)ccc1F [Example 48, 3-Tert-Butyl-5-Chloro-N-(2-Fluoro-5-Trifluoromethyl-Phenyl)-2-Hydroxy-6-Methyl-Benzamide] | 2800 nM | 85% | 3500 nM | 95% | 10 µM | 0.1 mM
Cc1c(Cl)cc(C(C)(C)C)c(O)c1C(=O)Nc1ccc([N+](=O)[O-])c(C(F)(F)F)c1 [Example 49, 3-Tert-Butyl-5-Chloro-2-Hydroxy-6-Methyl-N-(4-Nitro-3-Trifluoromethyl-Phenyl)-Benzamide] | 300 nM | 95% | 950 nM | 105% | 3 µM | –
Cc1c(Br)cc(C(C)(C)C)c(O)c1C(=O)Nc1ccc(C#N)cc1Cl [Example 51, 3-Bromo-5-Tert-Butyl-N-(2-Chloro-4-Cyano-Phenyl)-6-Hydroxy-2-Methyl-Benzamide] | 300 nM | 105% | 400 nM | 100% | 3 µM | –
Cc1c(Br)cc(C(C)(C)C)c(O)c1C(=O)Nc1cc(C(F)(F)F)ccc1Cl [Example 52, 3-Bromo-5-Tert-Butyl-N-(2-Chloro-5-Trifluoromethyl-Phenyl)-6-Hydroxy-2-Methyl-Benzamide] | 2500 nM | 75% | 2400 nM | 95% | 10 µM | –
Cc1c(Br)cc(C(C)(C)C)c(O)c1C(=O)Nc1ccc(Cl)cc1Cl [Example 53, 3-Bromo-5-Tert-Butyl-N-(2,4-Dichloro-Phenyl)-6-Hydroxy-2-Methyl-Benzamide] | 15000 nM | 95% | 4150 nM | 90% | 10 µM | –
Cc1c(Br)cc(C(C)(C)C)c(O)c1C(=O)Nc1c(Cl)cc(Cl)cc1[N+](=O)[O-] [Example 54, 3-Bromo-5-Tert-Butyl-N-(2,4-Dichloro-6-Nitro-Phenyl)-6-Hydroxy-2-Methyl-Benzamide] | 300 nM | 80% | 520 nM | 90% | 3 µM | –
Cc1c(Br)cc(C(C)(C)C)c(O)c1C(=O)Nc1c(Cl)cc([N+](=O)[O-])cc1Cl [Example 55, 3-Bromo-5-Tert-Butyl-N-(2,6-Dichloro-4-Nitro-Phenyl)-6-Hydroxy-2-Methyl-Benzamide] | 300 nM | 100% | 360 nM | 99% | 1 µM | –
Cc1ccc(C(C)(C)C)c(O)c1C(=O)Nc1ccc([N+](=O)[O-])cc1C(F)(F)F [Example 59, 3-Tert-Butyl-2-Hydroxy-6-Methyl-N-(4-Nitro-2-Trifluoromethyl-Phenyl)-Benzamide] | 30 nM | 100% | 110 nM | 110% | 10 µM | –
Cc1c(Br)cc(C(C)(C)C)c(O)c1C(=O)Nc1cc(C(F)(F)F)cc(C(F)(F)F)c1Br [Example 60, 3-Bromo-N-(2-Bromo-3,5-Bis-Trifluoromethyl-Phenyl)-5-Tert-Butyl-6-Hydroxy-2-Methylbenzamide] | 300 nM | 105% | 70 nM | 90% | 0.3 µM | –
Cc1c(Br)cc(C(C)(C)C)c(O)c1C(=O)Nc1cc(C(F)(F)F)ccc1C(F)(F)F [Example 61, N-(2,5-Bis-Trifluoromethyl-Phenyl)-3-Bromo-5-Tert-Butyl-6-Hydroxy-2-Methyl-Benzamide] | 1100 nM | 105% | 870 nM | 105% | 10 µM | –
Cc1c(Br)cc(C(C)(C)C)c(O)c1C(=O)Nc1c(Cl)cc(Cl)cc1C(F)(F)F [Example 62, 3-Bromo-5-Tert-Butyl-N-(2,4-Dichloro-6-Trifluoromethyl-Phenyl)-6-Hydroxy-2-Methylbenzamide] | 1200 nM | 85% | 2300 nM | 115% | 30 µM | –
Cc1c(Br)cc(C(C)(C)C)c(O)c1C(=O)Nc1ccc(C(C)C)cc1C(F)(F)F [Example 63, 3-Bromo-5-Tert-Butyl-6-Hydroxy-N-(4-Isopropyl-2-Trifluoromethyl-Phenyl)-2-Methyl-Benzamide] | 19000 nM | 55% | 14000 nM | 90% | 100 µM | –
